Measurements taken from patent publication US9943506B2, “BCL6 inhibitors as anticancer agents” (Cornell University, priority 2013, dated 2018).
Like-named read-outs stand apart in the source and are kept apart here.

Experiments:
Ly3 DLBCL cells = test: Growth inhibition of DLBCL cells, Ly3; assay type: cell-based
Description: (§1) 50,000 cells per well were treated for 48 hours with different concentrations of the compounds in 96 well plates, using DMSO as a control. Then, viability was determined with Cell Titer Blue™ (Promega) and growth inhibition was calculated as the percentage of viable cells with respect to cells treated with DMSO alone. GI50 values were determined by dose-response curves.
(§2) 293T cells were grown in Dulbecco's modified Eagles medium supplemented with 10% fetal bovine serum (FBS) (Gemini Bio-Products, Woodland, Calif.) and 1% penicillin-streptomycin. DLBCL cell lines OCI-Ly1, OCI-Ly1-B50, OCI-Ly7, OCI-Ly10 and OCI-Ly19 were grown in 80% Iscove's medium, 20% FBS and penicillin G/streptomycin. DLBCL cell lines Toledo, Farage, SU-DHL4, DOHH-2, SC-1, RCK8, TMD8, HBL-1, Ly3, Karpas 422 and SU-DHL6 were cultured in 90% RPMI medium, 10% FBS, 2 mM glutamine, 10 mM Hepes and penicillin G/streptomycin. All cell lines were cultured at 37° C. in a humidified atmosphere of 5% CO2.

Ly1B50 DLBCL cells = test: Growth inhibition of DLBCL cells, Ly1B50; assay type: cell-based
Description: as §1, §2

Ly10 DLBCL cells = test: Growth inhibition of DLBCL cells, Ly10; assay type: cell-based
Description: as §1, §2

Karpas 422 DLBCL cells = test: Growth inhibition of DLBCL cells, Karpas 422; assay type: cell-based; details: Homo sapiens
Description: as §1, §2

Ly4 DLBCL cells = test: Growth inhibition of DLBCL cells, Ly4; assay type: cell-based; details: Table 9; Bcl6 independent; read-out: GI 50 Ly4
Description: as §1

Ly7 DLBCL cells = test: Growth inhibition of DLBCL cells, Ly7; assay type: cell-based
Description: as §1, §2

Toledo DLBCL cells = test: Growth inhibition of DLBCL cells, Toledo; assay type: cell-based; details: Homo sapiens
Description: as §1, §2

WSU-DLCL2 DLBCL cells = test: Growth inhibition of DLBCL cells, WSU-DLCL2; assay type: cell-based; details: Homo sapiens, WSUDLCL2; Table 9; Bcl6 independent; read-out: GI 50 WSUDLCL2
Description: as §1

Ly1 DLBCL cells = test: Growth inhibition of DLBCL cells, Ly1; assay type: cell-based; details: Table 9; Bcl6 dependent; read-out: GI 50 Ly1
Description: as §1, §2

SUDHL6 DLBCL cells = test: Growth inhibition of DLBCL cells, SUDHL6; assay type: cell-based; details: Homo sapiens, SU-DHL-6
Description: as §1, §2

[1] = test system: primary human ABC DLBCL samples; test: Primary human ABC DLBCL samples
[2] = Pharmacokinetics in vitro and in vivo
mice [3] = test: Toxicity of 1085 in mice; assay type: in vivo; details: C57BL/6 mice, daily IP 50 to 150 mg/kg over 7 days
Description: […]. BCL6 is also required for normal development of germinal center (GC) B-cells. […]. Noteworthy, BCL6 dependent aggressive ABC DLBCLs were also sensitive to the in vitro and in vivo treatment with 1085, and even primary human ABC DLBCL samples were sensitive to the treatment with the new BCL6 inhibitor.
[…]. Five C57BL/6 mice were exposed to daily intraperitoneal (IP) administration of increasing doses of the compound ranging from 50 to 150 mg/kg over the course of 7 days, to a cumulative dose of 750 mg/kg, and another five mice were exposed to vehicle only. […] Brain, heart, lung, liver, kidney, bowel, spleen, and bone marrow tissues were examined. Complete peripheral blood counts, biochemistry and liver function tests were normal.

[4] = test system: BCL6 dependent GCB DLBCLs; test: GCB DLBCL tumors in vivo
Source text: (§3) BCL6 is also required for normal development of germinal center (GC) B-cells.

[5] = Stability in administration vehicle by NMR spectroscopy; assay type: physicochemical
Description: First, the stability of the compound in the administration vehicle of 30% PEG-300, 5% Tween-80, and 65% dextrose 5%, was evaluated at room temperature over a period of up to 8 days by NMR spectroscopy.
The toxic effects of 1085 on mice were then examined. Five C57BL/6 mice were exposed to daily intraperitoneal (IP) administration of increasing doses of the compound ranging from 50 to 150 mg/kg over the course of 7 days, to a cumulative dose of 750 mg/kg, and another five mice were exposed to vehicle only. […] Brain, heart, lung, liver, kidney, bowel, spleen, and bone marrow tissues were examined. Complete peripheral blood counts, biochemistry and liver function tests were normal.

[6] = test system: BCL6 dependent aggressive ABC DLBCLs; test: ABC DLBCL in vitro and in vivo treatment
Source text: as §3

germinal center = test: Germinal center formation in immunized mice; details: 10 days, 100 mg/kg
mice [7] = details: earlier work on 79-6; cited from earlier work
human DLBCL xenografts = details: mice; earlier work on 79-6; cited from earlier work
HIC1-BTB = biological target: T1, HIC1-BTB (Homo sapiens, UniProt Q14526); details: earlier work on 79-6; cited from earlier work
T1 construct: expressed in transfected cells; host or cells: 293T
T1 sequence (Q14526 47-110 limits assumed): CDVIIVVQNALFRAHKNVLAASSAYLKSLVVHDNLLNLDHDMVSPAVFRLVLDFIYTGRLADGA

PLZF-BTB = biological target: T2, PLZF-BTB (Homo sapiens, UniProt Q05516); details: earlier work on 79-6; cited from earlier work
T2 construct: the repression activity of the HIC1, PLZF, or Kaiso BTB domains; expressed in transfected cells; host or cells: 293T
T2 sequence (Q05516 34-96 limits assumed): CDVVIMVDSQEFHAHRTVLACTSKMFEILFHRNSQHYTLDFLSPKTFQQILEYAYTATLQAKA

BCL6-BTB = BCL6-BTB (Homo sapiens, UniProt P41182); test: MicroScale Thermophoresis binding to BCL6-BTB; details: affinity to the BCL6-BTB domain
Description: as §3
Recombinant BCL6-BTB was labeled using the RED-NHS Labeling kit (NanoTemper Technologies). […] The label:protein ratio was determined using photometry at 650 nm and Bradford reagent. […] The labeled BCL6-BTB was adjusted to 400 nM with PBS (Thermo) buffer supplemented with 0.05% Tween-80 (Fisher scientific). […] After 10 min incubation, approximately 4 μL of each solution was filled into Monolith NT Standard Treated Capillaries (NanoTemper Technologies GmbH). Thermophoresis was measured using a Monolith NT.115 instrument (NanoTemper Technologies GmbH) at an ambient temperature of 25° C. with 5 s/30 s/5 s laser off/on/off times, respectively. Instrument parameters were adjusted with 90% LED power and 40% MST power. Data of three independent experiments were analyzed (NT.Analysis software version 1.5.41, NanoTemper Technologies) using the signal from Thermophoresis.

[8] = Table 9, Bcl6 dependent, read-out: GI 50 Ly3
[9] = Table 9, Bcl6 independent, read-out: GI 50 Ly1B50
[10] = Table 9, Bcl6 dependent, read-out: GI 50 Ly10
[11] = Table 9, Bcl6 independent, read-out: GI 50 K422
[12] = Table 9, Bcl6 dependent, read-out: GI 50 Ly7
[13] = Table 9, Bcl6 independent, read-out: GI 50 Toledo
[14] = Table 9, Bcl6 dependent, read-out: GI 50 SUDHL6
[15] = Table 10, BCL6 dependent, read-out: GI50 SUDHL6
[16] = Table 2, BCL-6 dependent, 48 hours
[17] = Table 2, BCL-6 independent, 48 hours

| SMILES | GI50 (Ly3 DLBCL cells; [8]) | GI50 (Ly1B50 DLBCL cells; [9]) | GI50 (Ly10 DLBCL cells; [10]) | GI50 (Karpas 422 DLBCL cells; [11]) | GI50 (Ly4 DLBCL cells) | GI50 (Ly7 DLBCL cells; [12]) | GI50 (Ly7 DLBCL cells; Table 10, BCL6 dependent) | GI50 (Toledo DLBCL cells; [13]) | GI50 (Toledo DLBCL cells; Table 10, BCL6 independent) | GI50 (WSU-DLCL2 DLBCL cells) | GI50 (Ly1 DLBCL cells) | GI50 (SUDHL6 DLBCL cells; [14]) | GI50 (SUDHL6 DLBCL cells; [15]) | other results |
| --- | --- | --- | --- | --- | --- | --- | --- | --- | --- | --- | --- | --- | --- | --- |
| O=C(CN1C(=O)C(=O)c2cc(Cl)ccc21)OCc1ccc(F)cc1 [Compound 357] | 79 µM | 56 µM | 60 µM | 58 µM | > 125 µM | 25 µM | 30 ± 10 µM | 51 µM | 50 ± 1 µM | 100 µM | 81 µM | 1 µM | 22 ± 3 µM | – |
| O=C(CN1C(=O)C(=O)c2cc(Cl)ccc21)OCc1cccc(F)c1 [Compound 358] | > 125 µM | > 125 µM | > 125 µM | > 125 µM | > 125 µM | 20 µM | 40 ± 10 µM | 69 µM | 82 ± 20 µM | > 125 µM | > 125 µM | 2 µM | 27 ± 4 µM | – |
| C[C@@H](OC(=O)CN1C(=O)C(=O)c2cc(Cl)ccc21)c1ccccc1 [Compound 361] | 56 µM | 103 µM | 166 µM | 20 µM | 98 µM | 26 µM | – | 39 µM | – | 41 µM | 24 µM | 7 µM | – | – |
| O=C(O)CCN1C(=O)/C(=C2/C(=O)Nc3ccc(Cl)cc32)SC1=S [Compound 1085, (Z)-3-(5-(5-Chloro-2-oxoindolin-3-ylidene)-4-oxo-2-thioxothiazolidin-3-yl)propanoic acid] | – | – | – | – | – | – | – | – | – | – | – | – | – | GI50 (Ly3 DLBCL cells; [16]): > 40 µM; GI50 (Ly1B50 DLBCL cells; [17]): > 40 µM; sensitivity of primary human ABC DLBCL samples [1]: sensitive; pharmacokinetics [2]: favorable pharmacokinetics; GI50 (Ly10 DLBCL cells; [16]): 23.5 ± 0.2 µM; GI50 (Karpas 422 DLBCL cells; Table 2, BCL-6 independent, 48 hours, read-out: GI50 Karpas 422): > 40 µM; GI50 (Ly7 DLBCL cells; [16]): 23 ± 9 µM; complete peripheral blood counts, biochemistry and liver function tests (mice [3]): normal; toxic effects or other indicators of sickness (mice [3]; cumulative 750 mg/kg): No toxic effects; GI50 (Toledo DLBCL cells; [17]): > 40 µM; GI50 (SUDHL6 DLBCL cells; Table 2, BCL-6 dependent, 48 hours, read-out: GI50 SUDH6): 14 ± 7 µM; tumors with tumor regression [4]: 95%; stability in solution [5]: very stable in solution; stability of the compound in the administration vehicle ([5]; 30% PEG-300, 5% Tween-80, 65% dextrose 5%, room temperature, 8 days, NMR): No significant changes in the structure; sensitivity of ABC DLBCLs to treatment [6]: sensitive; effect on germinal center (germinal center): inhibited the germinal center |
| O=C(CN1C(=O)C(=O)c2cc(Cl)ccc21)OCc1ccc(Cl)cc1 [Compound 355] | 54 µM | 55 µM | 62 µM | 38 µM | 81 µM | 45 µM | 43 ± 3 µM | 35 µM | 45 ± 7 µM | 52 µM | 37 µM | 1 µM | 42 ± 10 µM | – |
| O=C(O)CC(C(=O)O)N1C(=O)/C(=C2/C(=O)Nc3ccc(Br)cc32)SC1=S (stereo not shown) [Compound 79-6] | – | – | – | – | – | – | – | – | – | – | – | – | – | toxicity (mice [7]): not toxic; effect on human DLBCL xenografts (human DLBCL xenografts): suppresses human DLBCL xenografts; inhibition of HIC1 BTB domain (HIC1-BTB): not other BTB domains; inhibition of PLZF BTB domain (PLZF-BTB): not other BTB domains; Kd (BCL6-BTB): ~120 µM |
